Four molecules from patent US12331040B2 (Karyopharm Therapeutics Inc., priority 2013, dated 2025) can be followed below.

Like-named read-outs stand apart in the source and are kept apart here.

Experiment [1] concerns 3T3 cells. Kind of experiment: MTT cell proliferation assay. The class given is cell-based. The conditions noted are these: Mus musculus. The method, boiled down: (§1)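 Cytotoxicity was measured by MTT: OD490 of the solubilized formazan after roughly 4 h with MTT reagent, reported as mean percent inhibition relative to the negative control. Test compounds covered eight concentrations between 1 nM and 30 μM, added to 5,000–10,000 cells per well that had attached overnight.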

Experiment [2] concerns MS751 cells. Kind of experiment: MTT cell proliferation assay. The format is cell-based. The conditions noted are these: Homo sapiens. A digest of the protocol: as §1
For experiment [3], the system named is Z138 cells. Put plainly: MTT cell proliferation assay. The format is cell-based. To be noted: Homo sapiens. A digest of the protocol: as §1
Experiment [4] relates to Molt-4 xenografts. Kind of experiment: Molt-4 T-ALL xenograft in SCID mice. The format is in vivo, mouse. To be noted: 100 mg/kg PO twice daily (BID). Here is the method: In this study, the impact of Compounds 667 and 728 on tumor growth was tested using the Molt-4 T-ALL cancer xenograft model in SCID mice. MOLT-4 (CRL-1582) acute lymphoblastic leukemia cells were obtained from ATCC. These cells were grown in RPMI-1640 medium supplemented with 10% fetal bovine serum, 1% penicillin and streptomycin. Cells were sub-cultured by transferring floating cells to a new flask and trypsinizing adherent cells before subculturing at a ratio of 1:4. Molt-4 cells were harvested by centrifugation and counted using a hemocytometer. Cells were resuspended in PBS at a 5×10^7 cells per mL. Cells were placed on ice and mixed with an equal volume of Matrigel (BD Biosciences CB-40234). This mixture was kept on ice and injected into the left flank of mice in a volume of 0.2 mL, equivalent to 5×10^6 cells per mouse. Twenty-four (24) CB-17 SCID mice were inoculated subcutaneously in the left flank with the Molt-4 cells. Treatment was initiated when the tumors reached a mean volume of approximately 100 mm^3. Mice were allocated to three (3) groups of eight (8) mice. Mice were treated with vehicle, Compound 667 or Compound 728. Compounds 667 and 728 (100 mg/kg) were given orally (PO) twice daily (BID) beginning on Day 1. Animal weights and conditions were recorded daily, and tumors were measured on Mondays, Wednesdays and Fridays.

Experiment [5] has as its system HL-60 cells. Put plainly: MTT cell proliferation assay. The class given is cell-based. To be noted: Homo sapiens. The protocol: (§2) The MTT cell proliferation assay was used to study the cytotoxic properties of the compounds. The assay was performed according to the method described by Roche Molecular Biochemicals, with minor modifications. The assay is based on the cleavage of the tetrazolium salt, MTT, in the presence of an electron-coupling reagent. The water-insoluble formazan salt produced must be solubilized in an additional step. Cells grown in a 96-well tissue culture plate were incubated with the MTT solution for approximately 4 hours. After this incubation period, a water-insoluble formazan dye formed. After solubilization, the formazan dye was quantitated using a scanning multi-well spectrophotometer (ELISA reader). […] The cells were seeded at 5,000-10,000 cells in each well of 96-well plate in 100 μL of fresh culture medium and were allowed to attach overnight. The stock solutions of the compounds were diluted in 100 μL cell culture medium to obtain eight concentrations of each test compound, ranging from 1 nM to 30 μM. […] All optical densities were measured at 490 nm using a Vmax Kinetic Microplate Reader (Molecular Devices). In most cases, the assay was performed in duplicate and the results were presented as a mean percent inhibition to the negative control±SE. The following formula was used to calculate the percent of inhibition: Inhibition (%)=(1−(ODo/OD))×100.
(§3) The M24 cell line is derived from human melanoma cells. The U2OS cell line is a human osteosarcoma cell line expressing wild type p53 and Rb, but lacking p16. The MM1S cell line is a multiple myeloma cell line; the parent cell line, MM.1, was established from peripheral blood of a multiple myeloma patient who had become resistant to steroid-based therapy. The RPMI8226 cell line is derived from human B lymphocyte cells. NHDF cells are normal human dermal fibroblast cells. The MRC-5 cell line is derived from normal lung tissue of a fetus. The PC3 cell line is a human prostate cancer cell line. The DU-145 cell line is a human prostate cancer cell line. The MDA-MB-231 cell line is a human breast adenocarcinoma cell line. The MDA-MB-468 cell line is a human breast carcinoma cell line. HL-60 cells are human promyelocytic leukemia cells. Hep G2 cells are human hepatocellular carcinoma cells. HEP 3B cells are human hepatocellular carcinoma cells. The DLD-1 cell line is a colorectal adenocarcinoma cell line. The HCT-15 cell line is a human colon carcinoma cell line. The Colo-205 cell line is derived from a human adenocarcinoma of the colon. The LoVo cell line is a human colon adenocarcinoma cell line.

Experiment [6] relates to MM1S cells. Put plainly: MTT cell proliferation assay. The format is cell-based. To be noted: Homo sapiens, MM1.S. Here is the method: as §2, §3
Experiment [7] concerns RPMI8226 cells. Kind of experiment: MTT cell proliferation assay. The class given is cell-based. To be noted: Homo sapiens, RPMI-8226. Here is the method: as §2, §3
For experiment [8], the system named is MDA-MB-468 tumors. Put plainly: Antibody staining of resected MDA-MB-468 tumors from treated mice. The class given is in vivo, mouse. The conditions noted are these: mice bearing MDA-MB-468 tumors; 30 mg/kg orally every day for three weeks. Here is the method:
Mice bearing MDA-MB-468 tumors were treated for three weeks with 30 mg/kg Compound 525 orally every day. Tumors were resected from the mice and fixed in buffered formalin and put into paraffin blocks. The blocks were sectioned and stained with antibodies against Ki67, Apotag, c-Myc, p-S473-Akt1 or p-S450-Akt1. The cells were imaged with a Nikon microscope.

Experiment [9] deals with HEP 3B cells. Kind of experiment: MTT cell proliferation assay. To be noted: Homo sapiens, Hep3B; HEP 3B cell line; read-out: MTT Assay IC50, HEP 3B. The format is cell-based. Here is the method:
as §2, §3

Experiment [10] concerns Hep G2 cells. Kind of experiment: MTT cell proliferation assay. The format is cell-based. To be noted: Homo sapiens, HepG2; Hep G2 cell line; read-out: MTT Assay IC50, Hep G2. Here is the method: as §2, §3
Experiment [11] concerns MRC-5 cells. Put plainly: MTT cell proliferation assay. The class given is cell-based. To be noted: Homo sapiens, MRC5; MRC-5 cell line. Here is the method: as §2, §3
Where [12] appears, read: NIH3T3, approximately 64-72 hours incubation, read-out: MTT Assay IC50, 3T3.
Where [13] appears, read: MS751, MS751 cells, approximately 64-72 hours incubation, read-out: MTT Assay IC50, MS-751.
[14] abbreviates: Z-138, Z138 cells, approximately 64-72 hours incubation, read-out: MTT Assay IC50, Z-138.
The mark [15] stands for this setting: NIH3T3, approximately 64-72 hours incubation, read-out: MTT Assay IC50 3T3.
The mark [16] stands for this setting: MS751, MS751 cells, approximately 64-72 hours incubation, read-out: MTT Assay IC50 MS-751.
Setting [17] is: Z-138, Z138 cells, approximately 64-72 hours incubation, read-out: MTT Assay IC50 Z-138.

Take `Nc1ccc(/C=C/C(=O)NCc2cc3cc(-c4ccc(C(=O)N5CCC(F)(F)CC5)cc4)cc(-c4ccc(F)cc4)c3o2)cn1` [Compound 728, (E)-3-(6-aminopyridin-3-yl)-N-((5-(4-(4,4-difluoropiperidine-1-carbonyl)phenyl)-7-(4-fluorophenyl)benzofuran-2-yl)methyl)acrylamide]: the IC50 was 100 to 5000 nM in experiment [1] (setting [12]), below 100 nM in [2] (setting [13]) and below 100 nM in [3] (setting [14]). Besides, the “median tumor volume of Molt-4 xenografts (as a percentage of pre-dose tumor volume)” value in experiment [4] was “tumor growth inhibition”.
Consider `Nc1ccc(/C=C/C(=O)NCc2cc3cc(-c4ccc(C(=S)N5CCC(F)(F)CC5)cn4)cc(C(F)(F)F)c3o2)cn1` [Compound 667, (E)-3-(6-aminopyridin-3-yl)-N-((5-(5-(4,4-difluoropiperidine-1-carbonothioyl)pyridin-2-yl)-7-(trifluoromethyl)benzofuran-2-yl)methyl)acrylamide], for which the IC50 in [1] (setting [12]) was above 10000 nM; in experiment [2] (setting [13]) it was below 100 nM; in [3] (setting [14]), below 100 nM. Besides, in experiment [4], the “median tumor volume of Molt-4 xenografts (as a percentage of pre-dose tumor volume)” value is “tumor growth inhibition”.
As for `Nc1ccc(/C=C/C(=O)NCc2cc3cc(-c4ccc(C(=O)N5CC[C@H](F)C5)cc4)cc(C(F)(F)F)c3o2)cn1` [Compound 525, (S,E)-3-(6-aminopyridin-3-yl)-N-((5-(4-(3-fluoropyrrolidine-1-carbonyl)phenyl)-7-(trifluoromethyl)benzofuran-2-yl)methyl)acrylamide], the IC50 in experiment [1] (NIH3T3, 72-hour MTT, read-out: 3T3 MTT IC50) is above 10000 nM; in experiment [1] (setting [15]), above 10000 nM; in experiment [2] (MS751, 72 h, MS751 cells, 72-hour MTT, read-out: MS751 MTT IC50) it was 300 nM; in experiment [2] (setting [16]), 100 to 5000 nM; in [3] (Z-138, 72 h, Z-138 cells, 72-hour MTT, read-out: Z-138 MTT IC50) it was 100 nM; in experiment [3] (setting [17]) it was 100 to 5000 nM. For the same molecule, the IC50 was 100 to 5000 nM in experiment [5] (HL-60 cell line, read-out: MTT Assay IC50, HL-60); 1060 nM in [5] (HL-60 cells, 72-hour MTT, read-out: HL-60 MTT IC50); 100 to 5000 nM in [6] (MM1S cell line, read-out: MTT Assay IC50, MM1S); 310 nM in experiment [6] (MM1S cells, 72-hour MTT, read-out: MM1S MTT IC50); 100 to 5000 nM in [7] (RPMI8226 cell line, read-out: MTT Assay IC50, RPMI8226); 430 nM in [7] (RPMI8226 cells, 72-hour MTT, read-out: RPMI8226 MTT IC50). The “PAK4 pathway signaling through Akt (phospho-Akt1) in tumors” value in experiment [8] is listed as “overall reductions”. Besides, the “apoptosis (Apotag) in tumors” value in experiment [8] is listed as “increase”. Further, the c-Myc in tumors result in experiment [8] is listed as “overall reductions”. For the same molecule, the “proliferation (Ki67) in tumors” value in experiment [8] is recorded as “reduction”.
With `Nc1ccc(/C=C/C(=O)NCc2cc3cc(-c4ccc(C(=O)N5CCOCC5)cc4)cc(Cl)c3o2)cn1` [Compound 502, (E)-3-(6-aminopyridin-3-yl)-N-((7-chloro-5-(4-(morpholine-4-carbonyl)phenyl)benzofuran-2-yl)methyl)acrylamide], the IC50 in [1] (setting [15]) is above 10000 nM; in experiment [2] (setting [16]) it was 100 to 5000 nM; in [3] (setting [17]), 100 to 5000 nM; in [9] it was 100 to 5000 nM; in experiment [10], 100 to 5000 nM; in experiment [11], 100 to 5000 nM.
